The source of these data is patent US20060014723A1, “Anti-parasitic uses of borinic acid complexes” (priority 2004, published 2006).

The subject of assay [1] is T. b. rhodesiense STIB 900. Put plainly: African sleeping sickness in vitro screening model (Alamar Blue). The assay is classed as cell-based, Trypanosoma brucei rhodesiense. Particulars: Trypanosoma brucei. The procedure: Bloodstream from trypomastigotes of the strains (a) and (c) are maintained in Minimal Essential Medium (MEM) with Earle's salts supplemented according to Baltz, et al., (EMBO J. 4:1273-1277, 1985) with 25 mM N-2-hydroxyethylpiperazine-N′-2-ethane-sulphonic acid (HEPES), 1 g/L additional glucose, 1% MEM non-essential amino acids (100×), 0.2 mM 2-mercaptoethanol, 2 mM sodium pyruvate, 0.1 mM hypoxanthine and 15% heat-inactivated horse serum.
All cultures and assays are conducted at 37° C. under an atmosphere of 5% CO2 in air.
After use the stocks are kept at −20° C. For the assays, the compound is further diluted in serum-free culture medium and finally to the appropriate concentration in complete medium without hypoxanthine.
Assays are performed in 96-well microtiter plates, each well containing 100 μL of culture medium with 8×10^3 bloodstream forms with or without a serial drug dilution. The highest concentration for the test compounds is 90 μg/mL. Seven 3-fold drug dilutions are used, covering a range from 90 μg/mL to 0.123 μg/mL. Each drug is tested in duplicate. Active compounds are tested twice for confirmation. The final result is the mean of the four individual IC50 values. After 72 hrs of incubation, the plates are inspected under an inverted microscope to assure growth of the controls and sterile conditions.
Ten μL of Alamar Blue (12.5 mg resazurin dissolved in 100 mL distilled water) are now added to each well and the plates are incubated for another 2 hours. Then the plates are read with a Spectramax GEMINI XS microplate fluorometer (Molecular Devices Cooperation, Sunnyvale, Calif., USA) using an excitation wavelength of 536 nm and an emission wave length of 588 nm.
IC50 values are determined using the microplate reader software Softmax Pro (Molecular Devices Cooperation, Sunnyvale, Calif., USA).
(In general: Resazurin is reduced to fluorescent resorufin, in cell work by metabolically active cells.)

Assay [2] deals with Leishmania donovani strain MHOM/ET1671L82. Put plainly: Leishmaniasis in vitro screening model (axenic amastigotes, Alamar Blue). The assay is classed as cell-based. Particulars: Leishmania donovani; read-out: L. donovani IC50. The procedure: The Leishmania donovani strain MHOM/ET1671L82 (obtained from Dr. S. Croft, London School of Hygiene and Tropical Medicine) is used. The strain is maintained in the Syrian Golden hamster. Amastigotes are collected from the spleen of an infected hamster. Amastigotes are grown in axenic culture at 37° C. in SM medium (Cunningham I., J. Protozoal. 24:325-329, 1977) at pH 5.4 supplemented with 10% heat-inactivated fetal bovine serum (FBS) under an atmosphere of 5% CO2 in air.
(§1) After use the stocks are kept at −20° C. For the assays, the compound is further diluted to the appropriate concentration using complete medium.
Assays are performed in 96-well flat-bottom microtiter plates (Costar, Corning Inc.), each well containing 100 μl of culture medium with 105 amastigotes from axenic culture with or without a serial drug dilution. Concentration of amastigotes is determined in a CASY cell analyzing system (Scharfe System, Reutlingen, Germany). Before the amastigotes are counted, the parasite culture is passed twice through a 22-gauge needle to break up clusters of amastigotes.
The highest concentration for the test compounds is 90 μg/mL. Seven 3-fold dilutions are used, covering a range from […]. Each drug is tested in duplicate. Active compounds are tested twice for confirmation. After 72 hours of incubation, the plates are inspected under an inverted microscope to assure growth of the controls and sterile conditions.
Ten μL of Alamar Blue (12.5 mg resazurin dissolved in 100 mL distilled water) are then added to each well and the plates are incubated for another 2 hours. Then the plates are read with a Spectramax GEMINI XS microplate fluorometer (Molecular Devices Cooperation, Sunnyvale, Calif., USA) using an excitation wave length of 536 nm and an emission wave length of 588 nm.
Data are analyzed using the microplate reader software Softmax Pro (Molecular Devices Cooperation, Sunnyvale, Calif., USA). Decrease of fluorescence (i.e. inhibition) is expressed as percentage of the fluorescence of control cultures and plotted against the drug concentrations. The IC50 value is calculated from the sigmoidal inhibition curve by the software program.

A further assay deals with P. falciparum K1. Description: Malaria in vitro screening model (3H-hypoxanthine incorporation). In kind it is cell-based, Plasmodium falciparum. Particulars: Plasmodium falciparum, K1. On the procedure:
[…] P. falciparum K1 is used in this study. K1 (a clone originating from Thailand) is resistant to chloroquine and pyrimethamine. The strains are maintained in RPMI 1640 medium with 0.36 mM hypoxanthine, supplemented with 25 mM N 2-hydroxyethyipiperazine-N-2-ethane-sulphonic acid (HEPES), 25 mM NaHCO3, neomycin (100 U/mL) and 5 g/L of ALBUMAX® II (lipid-rich bovine serum albumin, GIBCO, Grand Island, N.Y., USA), together with 5% washed human A+ erythrocytes. All cultures and assays are conducted at 37° C. under an atmosphere of 4% CO2, 3% O2 and 93% N2. Cultures are kept in incubation chambers filled with the gas mixture. Subcultures are diluted to a parasitemia of between 0.1 and 0.5% and the medium is changed daily.
Antimalarial activity is assessed using an adaptation of the procedures described by Desjardins et al. (Antimicrob. Agents Chemother. 16:710-718, 1979), and Matile and Pink (In: Lefkovits, I. and Pernis, B. (Eds.), Immunological Methods Vol. IV, Academic Press, San Diego, pp. 221-234, 1990).
Stock drug solutions are prepared in 100% dimethylsulfoxide (DMSO) at 10 mg/mL, and heated or sonicated if necessary to dissolve the sample. After use, the stocks are kept at −20° C. For the assays, the compound is further diluted in serum-free culture medium and finally to the appropriate concentration in complete medium without hypoxanthine.
Assays are performed in sterile 96-well microtiter plates, each well containing 200 μl of parasite culture (0.15% parasitemia, 2.5% hematocrit) with or without serial drug solutions. Seven 2-fold dilutions are used, covering a range from […] to 0.078 μg/mL. For active compounds the highest concentration is lowered (e.g., to […]); for plant extracts the highest concentration is increased to 50 μg/mL. […] After 48 hours of incubation at 37° C., 0.5 μCi ^3H-hypoxanthine is added to each well. Cultures are incubated for a further 24 h before being harvested onto glass-fiber filters and washed with distilled water. The radioactivity is counted using a Betaplate liquid scintillation counter (Wallac, Zurich, Switzerland). The results are recorded as counts per minute per well at each drug concentration and expressed as percentage of the untreated controls. IC50 values are calculated from the sigmoidal inhibition curves using Microsoft EXCEL.

For assay [3], the system named is Trypanosoma cruzi Tulahuen C2C4 strain. Description: Chagas disease in vitro screening model (beta-galactosidase strain in L-6 cells). The assay is classed as cell-based. Particulars: Trypanosoma cruzi, TULAHUEN, L6; read-out: T. cruzi IC50. The procedure: Trypanosoma cruzi Tulahuen C2C4 strain, containing the β-galactosidase (Lac Z) gene (Buckner et al., Antimicrob. Agents Chemother 40:2592-2597, 1996) is used for this study.
The infective amastigote and trypomastigote stages are cultivated in L-6 cells (a rat skeletal myoblast cell line) in RPMI 1640 medium supplemented with 2 mM L-glutamine and 10% heat-inactivated fetal bovine serum in 12.5 cm^2 tissue culture flasks. Amastigotes develop intracellularly, differentiate into trypomastigotes, and leave the host cell. These trypomastigotes infect new L-6 cells and are the stages used to initiate an infection in the assay. All cultures and assays are conducted at 37° C. under an atmosphere of 5% CO2 in air.
as §1
Assays are performed in sterile 96-well microtiter plates, each well containing 100 μl medium with 2×10^3 L-6 cells. After 24 hours, […] of a trypanosome suspension containing 5×10^3 trypomastigote bloodstream forms from culture are added to the wells. Forty-eight hours later, the medium is removed from the wells and replaced by […] fresh medium, with or without a serial drug dilution. At this point the L-6 cells should be infected with amastigotes and no free trypomastigotes should be in the medium. Seven 3-fold drug dilutions are used, covering a range from 90 μg/mL to 0.123 μg/mL. Each drug is tested in duplicate. Active compounds are tested twice for confirmation. After 96 hours of incubation the plates are inspected under an inverted microscope to assure growth of the controls and sterility.
Then the substrate CPRG/Nonidet (50 μl) is added to all wells. A colour reaction will become visible within 2-6 hours and can be read photometrically at 540 nm. Data are transferred into a graphics program (e.g., EXCEL), sigmoidal inhibition curves determined and IC50 values calculated.

In brackets after ≈: the same amount, converted by molar mass.

For the molecule `Fc1cccc(B(Oc2cccc3cccnc23)c2cccc(Cl)c2)c1` [Compound 17, (3-Chlorophenyl)(3-fluorophenyl)borinic acid quinolin-8-yl ester], the IC50 (usually the point on the concentration scale where inhibition reaches its midpoint) in assay [1] came to 0.18 µg/mL (≈ 0.498 µM); in assay [2] it was 0.42 µg/mL (≈ 1.16 µM); in the assay with P. falciparum K1, 1.77 µg/mL (≈ 4.89 µM); in assay [3], 1.06 µg/mL (≈ 2.95 µM).

Take `CC1(C)COC(c2cccc(B(Oc3cccc4cccnc34)c3cccc(F)c3)c2)=N1` [Compound 19, [3-(4,5-Dihydro-4,4-dimethyloxazol-2yl)phenyl](3-fluorophenyl)borinic acid quinolin-8-yl ester]: the IC50 was 0.32 µg/mL (≈ 0.754 µM) in assay [1], 0.66 µg/mL (≈ 1.56 µM) in assay [2], 1.89 µg/mL (≈ 4.45 µM) with P. falciparum K1 and 1.33 µg/mL (≈ 3.15 µM) in assay [3].

Regarding `CC1(C)COC(c2cccc(B(Oc3cccc4cccnc34)C3CC3)c2)=N1` [Compound 20, Cyclopropyl[3-(4,5-dihydro-4,4-dimethyloxazol-2yl)phenyl]borinic acid quinolin-8-yl ester], the IC50 in assay [1] came to 0.245 µg/mL (≈ 0.662 µM); in assay [2], 0.55 µg/mL (≈ 1.49 µM); in the assay on P. falciparum K1, 1.84 µg/mL (≈ 4.97 µM); in assay [3], 0.86 µg/mL (≈ 2.32 µM).

With `N#Cc1ccc(B(Oc2cccc3cccnc23)c2ccc(F)cc2)cc1` [Compound 22, (4-Cyanophenyl)(4-fluorophenyl)borinic acid quinolin-8-yl ester], the IC50 in assay [1] was determined as 0.325 µg/mL (≈ 0.923 µM); in assay [2] it was 0.34 µg/mL (≈ 0.965 µM); in the assay on P. falciparum K1, 1.46 µg/mL (≈ 4.15 µM); in assay [3], 0.845 µg/mL (≈ 2.4 µM).

For `Cc1ccccc1B(Oc1cccc2cccnc12)c1cccc(Cl)c1` [Compound 25, (3-Chlorophenyl)(2-methylphenyl)borinic acid quinolin-8-yl ester], the IC50 worked out at 0.295 µg/mL (≈ 0.825 µM) in assay [1], 0.41 µg/mL (≈ 1.15 µM) in assay [2], 1.81 µg/mL (≈ 5.06 µM) in the assay with P. falciparum K1 and 0.905 µg/mL (≈ 2.53 µM) in assay [3].

Consider `N#Cc1cccc(B(Oc2cccc3cccnc23)c2cccc(F)c2)c1` [Compound 29, (3-Cyanophenyl)(3-fluorophenyl)borinic acid quinolin-8-yl ester], for which the IC50 in assay [1] turned out to be 0.33 µg/mL (≈ 0.937 µM); in assay [2], 0.4 µg/mL (≈ 1.14 µM); in the assay on P. falciparum K1, 1.83 µg/mL (≈ 5.2 µM); in assay [3] it was 0.68 µg/mL (≈ 1.93 µM).

In the case of `Fc1cccc(B(Oc2cccc3cccnc23)c2ccccc2Cl)c1` [Compound 30, (2-Chlorophenyl)(3-fluorophenyl)borinic acid quinolin-8-yl ester], the IC50 turned out to be 0.305 µg/mL (≈ 0.843 µM) in assay [1], 0.58 µg/mL (≈ 1.6 µM) in assay [2], 1.74 µg/mL (≈ 4.81 µM) in the assay on P. falciparum K1 and 0.82 µg/mL (≈ 2.27 µM) in assay [3].

In the case of `Cc1cc(B(Oc2cccc3cccnc23)c2cccc(C#N)c2)ccc1Cl` [Compound 31, (4-Chloro-3-methylphenyl)(3-cyanophenyl)borinic acid quinolin-8-yl ester], the IC50 in assay [1] is 0.28 µg/mL (≈ 0.732 µM); in assay [2], 0.83 µg/mL (≈ 2.17 µM); in the assay on P. falciparum K1, 1.83 µg/mL (≈ 4.78 µM); in assay [3] it was 0.79 µg/mL (≈ 2.06 µM).

As for `N#Cc1cccc(B(Oc2cccc3cccnc23)c2cc(F)ccc2F)c1` [Compound 32, (3-Cyanophenyl)(2,5-difluorophenyl)borinic acid quinolin-8-yl ester], the 50% inhibitory concentration (IC50) is 0.41 µg/mL (≈ 1.11 µM) in assay [1], 0.41 µg/mL (≈ 1.11 µM) in assay [2], 1.82 µg/mL (≈ 4.92 µM) in the assay on P. falciparum K1 and 0.73 µg/mL (≈ 1.97 µM) in assay [3].

As to `N#Cc1cccc(B(Oc2cccc3cccnc23)c2ccccc2F)c1` [Compound 33, (3-Cyanophenyl)(2-fluorophenyl)borinic acid quinolin-8-yl ester], the IC50 in assay [1] came out at 0.3 µg/mL (≈ 0.852 µM); in assay [2], 0.61 µg/mL (≈ 1.73 µM); in the assay with P. falciparum K1, 1.79 µg/mL (≈ 5.08 µM); in assay [3], 1.39 µg/mL (≈ 3.95 µM).

Consider `Cc1cc(B(Oc2cccc3cccnc23)c2ccc(C#N)cc2)ccc1Cl` [Compound 34, (4-Chloro-3-methylphenyl)(4-cyanophenyl)borinic acid quinolin-8-yl ester], for which the 50% inhibitory concentration (IC50) in assay [1] was 0.23 µg/mL (≈ 0.601 µM); in assay [2] it was 0.07 µg/mL (≈ 0.183 µM); with P. falciparum K1, 1.39 µg/mL (≈ 3.63 µM); in assay [3], 0.82 µg/mL (≈ 2.14 µM).

`N#Cc1ccc(B(Oc2cccc3cccnc23)c2cc(F)ccc2F)cc1` [Compound 35, (4-Cyanophenyl)(2,5-difluorophenyl)borinic acid quinolin-8-yl ester]: the IC50 is 0.275 µg/mL (≈ 0.743 µM) in assay [1], 0.38 µg/mL (≈ 1.03 µM) in assay [2], 1.74 µg/mL (≈ 4.7 µM) in the assay with P. falciparum K1 and 0.705 µg/mL (≈ 1.9 µM) in assay [3].

As to `Clc1ccccc1C=CBOc1cccc2cccnc12` [Compound 36, (2-Chlorophenyl)vinyl borinic acid quinolin-8-yl ester], the half-inhibitory concentration (IC50) in assay [1] stood at 0.18 µg/mL (≈ 0.613 µM); in assay [2], 0.39 µg/mL (≈ 1.33 µM); with P. falciparum K1, 1.5 µg/mL (≈ 5.11 µM); in assay [3], 0.785 µg/mL (≈ 2.67 µM).
